Data on three substances can be found in patent US20230026969A1, “Oligopeptide, Testing Kit Thereof And Medical Composition Thereof” (China Medical University, priority 2019, published 2023).

Assay [1] deals with OA cartilage. The assay is described as follows: Intravital two-photon imaging of rhodamine-labeled peptides injected into rat joints. The format is in vivo. To be noted: for rhodamine fluorescence (red dots) in cartilage: intra-articular, two-photon microscopy. As for the experimental part:
The OA in rat model was established as previous described with slightly modification. In brief, the male SD rats≅300 grams in weight were used in this study. All animal experiments were approved by the China Medical University Committee for the Use and Care of Animals. Rats were kept under standard laboratory conditions (temperature 24° C., 12 h light-dark cycle), fed standard diet and drank tap water. Rats were anesthetized with 2.5% isofluorane (Abott, USA) in 70 ml/min flow rate before every injection. Rat joint OA was induced in the right knees in each group by injecting 0.2 ml of 4% papain solution (Sigma-Aldrich, USA) with 0.1 ml of 0.03 M cysteine (Sigma-Aldrich, USA) as activator. Same amount of saline was injected into the left knees in each group. Injection was repeated on the fourth and seventh days, respectively, and two weeks after the last papain injection, rat knees were removed for histological analysis to confirm the formation of OA. The established OA model in rats was further used in the following experiments for intraarticular injection.
The rhodamine-labeled C5-24 and scrambled peptides were separately injected into rat joints without (control) or with enzyme-induced OA. The C5-24 and scrambled peptides were chemically synthesized as accordingly (ABI, USA), modified with Biotin-PEG2-Iodoacetyl bridge linker (Thermo Fisher Scientific, USA) in HEPES buffer pH 8.0 through click reaction, further linked with avidin labeled rhodamine (Jacksonlmmuno, USA) and subjected to dialysis in ddH2O in M.W. 4K cut-off to remove the unlabeled rhodamine, further lyophilized and stored in −20° C. Aliquots of 1 μg rhodamine-labeled peptides in 40 μl PBS were used for intraarticular injection with using 30 G syringes.
Rat Knees were removed at 1-day post-injection, and both femoral condyles and tibias were cleaned thoroughly, immersed in PBS and sophisticatedly attached on 3.5 cm dish for 2-photon microscopic observation. The microscope system was operated using a near-infrared femtosecond laser (Mira 900, Coherent, USA) at the central wavelength of 810 nm, 76 MHz pulse repetition rate, and 200 fs pulse width for imaging. […] Thus, the wavelength of SHG from collagen fibers is 405 nm, while the TPEF from collagen, elastin, FAD, and NADH is approximately ranging from 450 to 650 nm. All images were obtained by a laser scanning unit (Fluoview 300, Olympus, Japan), a pair of two objective lenses for both lasers focusing and collection of photons (UPlanSApo 20×/0.75, Olympus, Japan), and two photomultiplier tubes respectively for SHG and TPEF detection (R3896, Hamamatsu, Japan). SHG and TPEF were filtered from the intense excitation laser background by a combination of band-pass filter (FF01-405/10, Semrock, USA) and color glass (BG39, Schott, Germany). And, then splitted by a dichroic mirror (FF435-Di01, Semrock, USA) and forward detected. […] Only the extinction ratio of linear polarization larger than 50:1 and the ellipticity of circular polarization (Imax/Imin) less than 1.1 after the focusing objective lens can then be used for the following two-photon imaging. The acquired images were mainly processed and analyzed with ImageJ/FiJi software (National Institutes of Health, Bethesda, Md., USA).

Another assay has as its system hPi-GL. The assay is described as follows: Immunocytofluorescent staining of phage clones on hPi-GL chondrocyte cell line. The format is cell-based, human. To be noted: phage clones on fixed hPi-GL cells. As to the method: For examination of those phage clones, slide-cultured hPi-GL cells were fixed with 4% paraformaldehyde in PBS at room temperature for 15 mins, washed with PBS and permeabilized with 0.1% Triton X-100 at room temperature for 30 mins, blocked for nonspecific binding with 1% BSA/PBST. The slide-cultured hPi-GL cells were separately incubated with 4×10^8 pfu, 8×10^8 pfu, and […] selected phage clones at 4° C. for 1 hour. After removing the unbound phages by washing, the cells were incubated with anti-M13 mouse mAb (GE Healthcare, Milwaukee, Wis., USA) as the primary antibody and R-Phycoerythrin-AffiniPure F(ab′)2 fragment goat anti-mouse IgG (Jackson ImmunoResearch Inc.) as the secondary antibody at room temperature for 1 hour, respectively. Then, washed with PBST, and counterstained with Hoechst 33258 (1 μg/ml; Sigma-Aldrich) at room temperature for 10 mins. The cells were analyzed for phage binding and localization by fluorescence using confocal microscopy (Zeiss LSM 700).

For assay [2], the system named is OA cartilage. Put plainly: Immunostaining of human OA tissue sections with phage clones: cartilage. To be noted: for binding activity to cartilage (DAB intensity): HRP-labeled phage clones. The format is binding. From the text: (§1) To examine localization of the targeting phages bound to articular tissues, human OA cartilage specimens were used for examination. Paraffin-embedded human OA tissue, synovium, and meniscus sections were retrieved from specimens of human OA surgical treatment under the approval of the Institutional Review Board of China Medical University Hospital (IRB no. CMUH108-REC1-046 and T-CMU-23728). Written informed consent was obtained, and all human tissue samples were coded for anonymity. All sections were dried, deparaffinized and rehydrated by standard protocols, and subsequently incubated with C5-87, C5-66, C5-83, C5-91, C5-24, E5-8, and C5-46 phage clones, or the control phage (5×10^8 pfu/μl). After washing, the sections were treated with anti-M13 mouse mAb (GE Healthcare) for 1 hour at room temperature. Following several washing steps, a biotin-free super sensitive polymer-HRP detection system (Biogenex, Fremont, Calif., USA) was used to detect immunoreactivity. The slides were lightly counterstained with hematoxylin, mounted with Aquatex (Merck, Darmstadt, Germany), and examined by light microscopy.

For another assay, the system named is meniscus. Put plainly: Immunostaining of human OA tissue sections with phage clones: meniscus. Particulars: HRP-labeled phage clones. It counts as binding.
From the text: as §1

A further assay has as its system synovium. Put plainly: Immunostaining of human OA tissue sections with phage clones: synovium. It counts as binding. Particulars: HRP-labeled phage clones.
From the text: as §1

[3] abbreviates: rhodamine-labeled peptide, OA cartilage.
The mark [4] stands for this setting: rhodamine-labeled peptide, control cartilage.

With “DYLWQYPDITWH [scrambled peptide, contains all the same amino acids as the original peptide but in new random order, reference compound]”, the “rhodamine fluorescence (red dots) in cartilage” value (“rhodamine fluorescence” for short) in the assay on OA cartilage [1] (setting [3]) and in the assay with OA cartilage [1] (setting [4]) was “sparse red dots” throughout. Also, the “ability to bind to OA cartilage” value in the assay on OA cartilage [1] (scrambled control peptide) is “not able to bind to OA cartilage”.

Take “D L Q Y W Y P I W D T H (DLQYWYPIWDTH; binding to collagen XII; DOMAIN (5)..(9); DOMAIN (10)..(12)) [C5-24, 1, from phage display]”: the “binding to hPi-GL (immunocytofluorescent staining, M13-PE)” value in the assay with hPi-GL was “specific and remarkable binding”. Further, in the assay on OA cartilage [2], the “specificity for targeting the territorial region of OA cartilage” value was “best specificity” and the “binding activity to cartilage (DAB intensity)” value is reported as “superior binding activity”. Also, in the assay with meniscus, the “binding activity to the meniscus (DAB intensity)” value is “no binding activity”. For the same substance, the “binding activity to the synovium (DAB intensity)” value in the assay with synovium is “no binding activity”. For the same substance, the “overall fluorescent peptides binding area, OA vs control cartilage” value in the assay on OA cartilage [1] (all slices, FIG. 1b) is recorded as “significant difference”. In the assay with OA cartilage [1] (setting [3]), the “depth reached in the OA cartilage (z-axial plane)” value is “at least 50 μm” and the “rhodamine fluorescence” value is listed as “red dots were observed”. Also, the “rhodamine fluorescence” value in the assay with OA cartilage [1] (setting [4]) was “sparse red dots”.

As to “D A Y W H P V W V H D P (DAYWHPVWVHDP; binding to collagen XII; DOMAIN (4)..(8)) [C5-91, 2, from phage display]”, the “binding to hPi-GL (immunocytofluorescent staining, M13-PE)” value in the assay with hPi-GL was “specific and remarkable binding”. The “binding activity to cartilage (DAB intensity)” value with OA cartilage [2] is given as “superior binding activity”. Besides, the “binding activity to the meniscus (DAB intensity)” value in the assay with meniscus was “no binding activity”. Also, in the assay on synovium, the “binding activity to the synovium (DAB intensity)” value is “no binding activity”.
